Measured values as given in US10721933B2, “Pesticidally active semi-carbazones and thiosemicarbazones derivatives” (Syngenta Participations AG, priority 2015, dated 2020).

Assays:
[1] = tested on: Spodoptera littoralis; test: Spodoptera littoralis (Egyptian cotton leaf worm), sprayed cotton leaf discs, L1 larvae; assay type: in vivo; conditions: foliar, 72 h, application rate of 200 ppm, 3 days after infestation, in comparison to untreated samples, read-out: control (at least one of mortality, anti-feedant effect, growth inhibition)
Experimental: Example B1: Spodoptera littoralis (Egyptian Cotton Leaf Worm)
Cotton leaf discs were placed on agar in 24-well microtiter plates and sprayed with aqueous test solutions prepared from 10,000 ppm DMSO stock solutions. After drying, the leaf discs were infested with five L1 larvae. The samples were assessed for mortality, anti-feedant effect, and growth inhibition in comparison to untreated samples 3 days after infestation. Control of Spodoptera littoralis by a test sample is when at least one of mortality, anti-feedant effect, and growth inhibition is higher than the untreated sample.

[2] = tested on: Diabrotica balteata; test: Diabrotica balteata (corn root worm), sprayed maize sprouts, L2 larvae; assay type: in vivo; conditions: 96 h, application rate of 200 ppm, 4 days after infestation, in comparison to untreated samples, read-out: effect in at least one of the two categories (mortality or growth inhibition)
Experimental: Example B3: Diabrotica balteata (Corn Root Worm)
Maize sprouts, placed on an agar layer in 24-well microtiter plates were treated with aqueous test solutions prepared from 10,000 ppm DMSO stock solutions by spraying. After drying, the plates were infested with L2 larvae (6 to 10 per well). The samples were assessed for mortality and growth inhibition in comparison to untreated samples 4 days after infestation.

[3] = tested on: Plutella xylostella; test: Plutella xylostella (diamond back moth), treated artificial diet, L2 larvae; assay type: in vivo; conditions: 120 h, application rate of 200 ppm, 5 days after infestation, in comparison to untreated samples, read-out: effect in at least one of the two categories (mortality or growth inhibition)
Experimental: Example B2: Plutella xylostella (Diamond Back Moth)
24-well microtiter plates with artificial diet were treated with aqueous test solutions prepared from 10,000 ppm DMSO stock solutions by pipetting. After drying, the plates were infested with L2 larvae (10 to 15 per well). The samples were assessed for mortality and growth inhibition in comparison to untreated samples 5 days after infestation.

Structure (SMILES)	melting point [°C]	percent control (mortality, anti-feedant effect or growth inhibition) at 200 ppm [1] [%]	percent effect (mortality or growth inhibition) at 200 ppm [2] [%]	percent effect (mortality or growth inhibition) at 200 ppm [3] [%]
CC(C)c1ccccc1NC(=O)N/N=C/c1ccc2c(c1)C(=O)N(c1ccc(OC(F)(F)F)cc1)C2=O [Compound P6]	239 to 240	–	–	–
Cc1cccc(C)c1NC(=S)N/N=C/c1ccc2c(cnn2-c2ccc(OC(F)(F)F)cc2)c1 [Compound P21, 1-(2,6-dimethylphenyl)-3-[(E)-[1-[4-(trifluoromethoxy)phenyl]indazol-5-yl]methyleneamino]thiourea]	–	≥ 80	≥ 80	–
CC(C)c1ccccc1NC(=S)N/N=C/c1ccc2cn(-c3ccc(OC(F)(F)F)cc3)nc2c1 [Compound P36]	–	≥ 80	≥ 80	≥ 80
Cc1cccc(C)c1NC(=S)N/N=C/c1ccc2nc(-c3ccc(OC(F)(F)F)cc3)n(C)c2c1 [Compound P30]	–	–	–	≥ 80
CC(C)c1ccccc1NC(=S)N/N=C/c1ccc2c(c1)C(=O)N(c1ccc(OC(F)(F)F)cc1)C2=O [Compound P12]	–	–	–	≥ 80
CC(C)c1ccccc1NC(=S)N/N=C/c1ccc2sc(-c3ccc(OC(F)(F)F)cc3)nc2c1 [Compound P14]	–	–	≥ 80	≥ 80
CC(C)c1ccccc1NC(=S)N/N=C/c1ccc2nc(Oc3ccc(OC(F)(F)F)cc3)ccc2c1 [Compound P2, N-(2-isopropylphenyl)-2-((2-(4-(trifluoromethoxy)phenoxy)quinolin-6-yl)methylene)hydrazinecarbothioamide]	–	≥ 80	≥ 80	≥ 80
Cc1cccc(C)c1NC(=S)N/N=C/c1ccc2cn(-c3ccc(OC(F)(F)F)cc3)nc2c1 [Compound P1, N-(2,6-dimethylphenyl)-2-((2-(4-(trifluoromethoxy)phenyl)-2H-indazol-6-yl)methylene)hydrazinecarbothioamide]	–	≥ 80	≥ 80	≥ 80
Cc1cccc(C)c1NC(=O)N/N=C/c1ccc2c(cnn2-c2ccc(OC(F)(F)F)cc2)c1 [Compound P24, 1-(2,6-dimethylphenyl)-3-[(E)-[1-[4-(trifluoromethoxy)phenyl]indazol-5-yl]methyleneamino]urea]	227 to 233	–	–	–
CC(C)c1ccccc1NC(=O)N/N=C/c1ccc2nc(-c3ccc(OC(F)(F)F)cc3)n(C)c2c1 [Compound P32]	–	≥ 80	–	≥ 80
CC(C)c1ccccc1NC(=O)N/N=C/c1ccc2sc(-c3ccc(OC(F)(F)F)cc3)nc2c1 [Compound P15]	–	–	≥ 80	≥ 80
Cc1cccc(C)c1NC(=O)N/N=C/c1ccc2nc(-c3ccc(OC(F)(F)F)cc3)n(C)c2c1 [Compound P28, 1-(2,6-dimethylphenyl)-3-[(E)-[3-methyl-2-[4-(trifluoromethoxy)phenyl]benzimidazol-5-yl]methyleneamino]urea]	218 to 219	–	–	–
CC(C)c1ccccc1NC(=O)N/N=C/c1ccc2c(cnn2-c2ccc(OC(F)(F)F)cc2)c1 [Compound P23]	207 to 213	–	–	–
Cc1cccc(C)c1NC(=S)N/N=C/c1ccc2nc(-c3ccc(OC(F)(F)F)cc3)cn2c1 [Compound P17, 1-(2,6-dimethylphenyl)-3-[(E)-[2-[4-(trifluoromethoxy)phenyl]imidazo[1,2-a]pyridin-6-yl]methyleneamino]thiourea]	–	≥ 80	≥ 80	≥ 80
Cc1cccc(C)c1NC(=S)N/N=C/c1ccc2sc(-c3ccc(OC(F)(F)F)cc3)nc2c1 [Compound P13, 1-(2,6-dimethylphenyl)-3-[(E)-[2-[4-(trifluoromethoxy)phenyl]-1,3-benzothiazol-5-yl]methyleneamino]thiourea]	–	–	≥ 80	≥ 80
CC(C)c1ccccc1NC(=O)N/N=C/c1ccc2cn(-c3ccc(OC(F)(F)F)cc3)nc2c1 [Compound P35]	–	≥ 80	≥ 80	≥ 80
Cc1cccc(C)c1NC(=S)N/N=C/c1ccc2nn(-c3ccc(OC(F)(F)F)cc3)cc2c1 [Compound P25, 1-(2,6-dimethylphenyl)-3-[(E)-[2-[4-(trifluoromethoxy)phenyl]indazol-5-yl]methyleneamino]thiourea]	225 to 234	–	–	–
CC(C)c1ccccc1NC(=S)N/N=C/c1ccc2c(c1)nc(-c1ccc(OC(F)(F)F)cc1)n2C [Compound P33]	–	≥ 80	–	≥ 80
Cc1cccc(C)c1NC(=S)N/N=C/c1ccc2c(c1)nc(-c1ccc(OC(F)(F)F)cc1)n2C [Compound P29]	–	≥ 80	≥ 80	≥ 80
Cc1cccc(C)c1NC(=O)N/N=C/c1ccc2nc(-c3ccc(OC(F)(F)F)cc3)cn2c1 [Compound P18, 1-(2,6-dimethylphenyl)-3-[(E)-[2-[4-(trifluoromethoxy)phenyl]imidazo[1,2-a]pyridin-6-yl]methyleneamino]urea]	–	≥ 80	–	≥ 80
CC(C)c1ccccc1NC(=S)N/N=C/c1ccc2nc(-c3ccc(OC(F)(F)F)cc3)n(C)c2c1 [Compound P34]	–	≥ 80	–	≥ 80
O=C1c2ccc(/C=N/NC(=S)Nc3ccccc3C(F)(F)F)cc2C(=O)N1c1ccc(OC(F)(F)F)cc1 [Compound P11]	235 to 236	–	–	–
CC(C)c1ccccc1NC(=O)N/N=C/c1ccc2nc(-c3ccc(OC(F)(F)F)cc3)cn2c1 [Compound P19]	–	≥ 80	–	≥ 80
Cc1cccc(C)c1NC(=O)N/N=C/c1ccc2c(c1)nc(-c1ccc(OC(F)(F)F)cc1)n2C [Compound P27, 1-(2,6-dimethylphenyl)-3-[(E)-[1-methyl-2-[4-(trifluoromethoxy)phenyl]benzimidazol-5-yl]methyleneamino]urea]	–	≥ 80	–	–
Cc1cccc(C)c1NC(=S)N/N=C/c1ccc2c(c1)C(=O)N(c1ccc(OC(F)(F)F)cc1)C2=O [Compound P4, 1-(2,6-dimethylphenyl)-3-[(E)-[1,3-dioxo-2-[4-(trifluoromethoxy)phenyl]isoindolin-5-yl]methyleneamino]thiourea]	–	–	–	≥ 80
CC(C)c1ccccc1NC(=O)N/N=C/c1ccc2c(c1)nc(-c1ccc(OC(F)(F)F)cc1)n2C [Compound P31]	–	≥ 80	–	≥ 80
CC(C)c1ccccc1NC(=S)N/N=C/c1ccc2c(cnn2-c2ccc(OC(F)(F)F)cc2)c1 [Compound P22]	–	–	–	≥ 80
